Measured values as given in patent US20050014735A1, “Treatment of Th2 dominated immunological disease states with progesterone receptor antagonists” (Solvay Pharmaceuticals GmbH, priority 2001, published 2005).

Legend:
[1] = system: peripheral blood mononuclear cells (PBMC); experiment: Th1 and Th2 cytokine profiles produced by mitogen-stimulated PBMC (ELISA), ex vivo; assay type: cell-based, human
Protocol: The effects of dydrogesterone on Th1 and Th2 cytokine profiles produced by mitogen-stimulated peripheral blood mononuclear cells (=PBMC) were determined. Several studies have pointed to a deviation of cytokine profiles in women when during pregnancy. Pregnancy is associated with a shift towards Th2 bias, evinced by changes in peripheral T cells, by cytokine production by peripheral lymphocytes and by cytokine changes at the maternal-fetal interface. Unexplained recurrent spontaneous abortion (URSA) seems to be associated with a stronger bias towards Th1 cytokines. Women who have earlier been gone through URSA may therefore be regarded as a pre-selected group of patients that will typically respond to an immunological stimulation by showing a Th1 dominated pattern of immune response. The pharmacological test was therefore performed with a suitable URSA group which comprised of women admitted with spontaneous abortion for evacuation, (i) who have had at least two previous unexplained miscarriages, (ii) who were currently undergoing at least a 3rd abortion and (iii) who had been fully investigated. The relationship between habitual abortion and cytokine production response in 54 women with normal pregnancy (and at least 3 previous normal pregnancies) and 23 women with a history of habitual abortion of unexplained aetiology (URSA group) has been investigated. Peripheral blood was obtained by venipuncture from the abortion group on the day of abortion. PBMC is separated by Ficoll-paque (Pharmacia Biotech, Sweden) density gradient centrifugation, suspended in RPMI medium (=“Roswell Park Memorial Institute”-medium; obtained from GIBCO/BRL, USA) containing 10% fetal calf serum, aliquoted into 96 well tissue culture plates at a density of 100.000 cells per well and then stimulated with the mitogen phytohemagglutinin (=PHA, Sigma Chemicals, USA) at a concentration of […] for a period of 96 hours, with autologous placental antigens or with trophoblast antigens. […] Progesterone was tested at concentrations of […]. RU486 was tested at equivalent concentrations. Culture supernatants were harvested at 96 hours for determination of the levels of cytokines secreted by the PBMC into the supernatants. Cytokine levels were determined in the supernatants by enzyme-linked immunosorbent assay (=ELISA). Each sample was tested in the following manner: • PBMC+mitogen • PBMC+mitogen+progesterone • PBMC+mitogen+progesterone+RU486 • PBMC+mitogen+dydrogesterone • PBMC+mitogen+dydrogesterone+RU486 • PBMC+mitogen+Carrier • PBMC+mitogen+Carrier+RU486 Th1 cytokines TNF-α and IFN-γ, and Th2 cytokines IL-4, IL-6 and IL-10 were evaluated in these samples by ELISA using kits that were obtained from Immunotech SA, France. These consisted of “sandwich ELISA”; briefly the first step leads to the capture of the relevant cytokine by monoclonal anti-cytokine antibodies bound to the wells of microtiter plates. In the second step, a second biotinylated monoclonal is added together with streptavidin-enzyme (peroxidase or alkaline phosphatase) conjugate. The biotinylated antibody binds to the solid phase antibody-antigen complex, and in turn, binds the conjugate. After incubation the wells are washed and the binding of the streptavidin-enzyme via biotin is followed by the addition of a chromogenic substrate. The intensity of the coloration produced is proportional to the concentration of the cytokine in the sample. Standard curves are plotted for each of the cytokines using reference recombinant cytokines and the results are read from these curves. The sensitivity of each of the assays is as follows: 5 pg/ml of TNF-α, 0.08 IU/ml of IFN-γ, 5 pg/ml of IL-4 and 5 pg/ml of IL-10. Results will be analysed by the t-test for independent samples.

Th1 cytokine production = conditions: in vitro, women with recurrent pregnancy loss; cited from earlier work
[2] = PBMC of women with spontaneous abortion and habitual abortion
[3] = PBMC supernatant, ELISA, 96 hours

| SMILES | Th1/Th2 bias of cytokine profile [1, 2] | activity of lymphocytes [1, 2] | IFN-γ level [1, 3] | Interleukin 4 level [1, 3] | Interleukin 6 level [1, 3] | release of progesterone induced blocking factor (PIBF) ([1]; women with spontaneous abortion and habitual abortion) | embryotoxic Th1 cytokine production to trophoblast (Th1 cytokine production) |
| --- | --- | --- | --- | --- | --- | --- | --- |
| CC(=O)[C@H]1CC[C@H]2[C@@H]3C=CC4=CC(=O)CC[C@@]4(C)[C@@H]3CC[C@]12C [dydrogesterone] | shift from a Th1 towards a Th2 bias | reduced | reduction | marked increase | marked increase | increased release | – |
| CC(=O)[C@H]1CC[C@H]2[C@@H]3CCC4=CC(=O)CC[C@]4(C)[C@H]3CC[C@]12C [progesterone] | – | – | – | – | – | – | inhibits |
